{"source": "patent US11840686B2", "about": "“Modulation of prekallikrein (PKK) expression” (Ionis Pharmaceuticals, Inc., priority 2013, dated 2023)", "key": {"[1]": {"test_system": "captopril and ISIS 461756-induced vascular permeability", "assay": "Evans Blue vascular permeability in captopril and ISIS 461756-induced angioedema mouse models (Example 11)", "type": "in vivo", "details": "captopril Yes, ISIS 461756 Yes; ISIS oligonucleotides 40 mg/kg sc twice a week 4 weeks; HOE-140 30 μg ip", "text": "Hereditary angioedema (HAE) is characterized by local swelling and increase in vascular permeability in subcutaneous tissues (Morgan, B. P. N. Engl. J. Med. 363: 581-83, 2010). It is caused by a deficiency of the C1 inhibitor, a protein of the complement system. Two mouse models were used in this study including an established mouse model of C1-INH deficiency and a captopril-induced edema model, both of which cause vascular permeability, a hallmark of HAE. Reversal of vascular permeability is accompanied by increased plasma levels of high molecular weight kininogen (HMWK).\nIn the first model, angioedema was induced by treatment with Captopril, a known antihypertensive agent, which increases vascular permeability in mice and replicates the pathology of hereditary angioedema.\nIn the second model, angioedema was induced by treatment with ISIS 461756, an antisense oligonucleotide which targets murine C1 inhibitor mRNA, which increases vascular permeability in mice and replicates the pathology of hereditary angioedema. ISIS 461756 (SEQ ID NO: 2245; […]) is a 5-10-5 MOE gapmer targeting nucleosides 1730-1749 of NM_009776.3 (SEQ ID NO: 2243).\nThe effect of HOE-140 and ISIS 482584, an antisense oligonucleotide inhibitor of PKK, were evaluated in the Captopril and ISIS 461756-induced mouse models of vascular permeability. Some of the murine groups were treated with HOE-140, a selective antagonist of the bradykinin B2 receptor, which blocks vasodilation and vascular permeability (Cruden and Newby, Expert Opin. Pharmacol. 9: 2383-90, 2008). Other mice were treated with ISIS 482584, which inhibits PKK mRNA expression. The effect of treatment with HOE-140 was compared with the effect of treatment with ISIS 482584.\nGroup 1 consisted of 4 C57BL/6J-Tyrc-2J mice treated with PBS administered subcutaneously twice a week for 4 weeks. No other treatment was administered to Group 1 which served as a control group to measure the basal level of vascular permeability.\nGroup 2 consisted of 8 C57BL/6J-Tyrc-2J mice treated with PBS administered subcutaneously twice a week for 4 weeks. At the end of the treatment, the mice were intraperitoneally administered 20 μg of captopril. Group 2 served as a PBS control group for captopril-induced vascular permeability.\n(§1) Group 3 consisted of 8 C57BL/6J-Tyrc-2J mice treated with PBS administered subcutaneously twice a week for 4 weeks. On day 14, the mice were treated with 50 mg/kg of the antisense oligonucleotide targeting C1 inhibitor, ISIS 461756, administered subcutaneously twice a week for 2 weeks. At the end of the treatment period, the mice were intraperitoneally administered 20 μg of captopril. Group 3 served as a PBS control group for captopril and ISIS 461756-induced vascular permeability.\nGroup 4 consisted of 8 C57BL/6J-Tyrc-2J mice treated with PBS administered subcutaneously twice a week for 4 weeks. On day 14, the mice were treated with 50 mg/kg of the antisense oligonucleotide targeting C1 inhibitor, ISIS 461756, administered subcutaneously twice a week for 2 weeks. At the end of the treatment period, the mice were intraperitoneally administered 20 μg of captopril. The mice were then also intraperitoneally administered 30 μg of HOE-140. Group 4 served as a positive control for inhibition of vascular permeability with HOE-140.\nas §1, with “5” for “3”, “40 mg/kg of control oligonucleotide ISIS 141923, a 5-10-5 MOE gapmer with no known murine target, ([…]; SEQ ID NO: 2246)” for “PBS”, “a” for “a PBS”, “permeability. […]” for “permeability.”"}, "[2]": {"test_system": "PKK mRNA", "assay": "PKK mRNA in liver of mice treated with ISIS 461756 (Example 18)", "type": "in vivo, mouse", "details": "liver; all groups ISIS 461756 25 mg/kg/wk; pretreatment PBS or oligonucleotide 80 mg/kg/wk sc 3 weeks", "procedure": "(§2) Vascular permeability induced by ISIS 461756, an antisense oligonucleotide which targets murine C1 inhibitor mRNA, increases vascular permeability in mice and replicates the pathology of hereditary angioedema. The effect of ISIS 482584 on this model was evaluated.\n(§3) One group of 8 mice was treated with 40 mg/kg ISIS 482584 administered subcutaneously twice a week for 3 weeks (weekly dose of 80 mg/kg). A second group of 8 mice was treated with 40 mg/kg of the control oligonucleotide, ISIS 141923, administered subcutaneously twice a week for 3 weeks (weekly dose of 80 mg/kg). A third group of 8 mice was treated with PBS administered subcutaneously twice a week for 3 weeks. On day 14, all the groups were treated with 12.5 mg/kg ISIS 461756 administered subcutaneously twice a week for 3 weeks (weekly dose of 25 mg/kg). A control group of mice was treated with PBS administered subcutaneously twice a week for 3 weeks but was not administered ISIS 461756.\n(§4) At the end of the treatment period, all the groups were injected with 30 mg/kg of Evans Blue solution into the tail vein. The mice were sacrificed 30 min after the Evans Blue solution administration and colons, feet, ears, and intestines were harvested. The liver was also harvested for RNA analysis.\n(§5) RNA was isolated from the liver for RT-PCR analysis of C1-INH and PKK mRNAs. The primer probe set for C1-INH is RTS3218 (forward sequence […], designated herein as SEQ ID NO: 2234; reverse sequence […], designated herein as SEQ ID NO: 2235; probe sequence […], designated herein as SEQ ID NO: 2236). The primer probe set for PKK is RTS3287 (forward sequence […], designated herein as SEQ ID NO: 2237; reverse sequence […], designated herein as SEQ ID NO: 2238; probe sequence […], designated herein as SEQ ID NO: 2239). The results are presented in Table 79 as percent inhibition compared to the PBS control not treated with ISIS 461756."}, "[3]": {"test_system": "C1-INH mRNA", "assay": "C1-INH mRNA in liver of mice treated with ISIS 461756 (Example 18)", "type": "in vivo, mouse", "details": "for Percent inhibition of C1-INH mRNA expression compared to the untreated PBS control: liver, all groups ISIS 461756 25 mg/kg/wk, pretreatment PBS or oligonucleotide 80 mg/kg/wk sc 3 weeks", "procedure": "as §2, §3, §4, §5"}, "[4]": {"test_system": "vascular permeability induced by ISIS 461756", "assay": "C1-INH antisense oligonucleotide-induced vascular permeability, Evans Blue OD600 (Example 18)", "type": "in vivo, mouse", "details": "Evans Blue OD600; all groups ISIS 461756 25 mg/kg/wk; pretreatment PBS or oligonucleotide 80 mg/kg/wk", "procedure": "as §2, §3, §4\nThe harvested tissues from the feet, colon, and intestines were placed in formamide solution overnight to leach out the Evans Blue dye. The formamide solution containing feet tissue was heated to 55° C. and left overnight. The color intensity of the dye-infused formamide solution was then measured at OD600 nm. The data is presented in Table 80 as percent increase or reduction compared to the PBS control not treated with ISIS 461756."}, "[5]": {"assay": "Tolerability / clinical observation of cynomolgus monkeys (Example 8)", "type": "in vivo, cynomolgus monkey", "details": "cynomolgus monkeys, 40 mg/kg s.c.", "procedure": "Cynomolgus monkeys were treated with ISIS antisense oligonucleotides selected from studies described above. Antisense oligonucleotide efficacy and tolerability were evaluated. The human antisense oligonucleotides tested are cross-reactive with the rhesus genomic sequence (GENBANK Accession No. NW_001118167.1 truncated from nucleotides 2358000 to 2391000 and designated herein as SEQ ID NO: 18).\nDuring the study period, the monkeys were observed a minimum of once daily for signs of illness or distress. Any animal experiencing more than momentary or slight pain or distress due to the treatment, injury or illness was promptly reported to the responsible veterinarian and the Study Director. Any animal in poor health or in a possible moribund condition was identified for further monitoring and possible euthanasia. […] The protocols described in the Example were approved by the Institutional Animal Care and Use Committee (IACUC)."}, "[6]": {"test_system": "PKK protein", "assay": "PKK protein in cynomolgus monkey plasma by ELISA (Example 8)", "type": "in vivo", "details": "40 mg/kg sc", "procedure": "Approximately 0.9 mL of blood was collected each time from all available animals at pre-dose, day 17, day 31, day 45, day 59, and day 73, and placed in tubes containing 3.2% sodium citrate. The tubes were centrifuged (3000 rpm for 10 min at room temperature) to obtain plasma. PKK protein levels were measured in the plasma by ELISA. The results are presented in Table 52, expressed as percentage inhibition compared to the PBS control levels."}, "[7]": {"details": "cynomolgus monkey, in vivo, sc, 40 mg/kg"}, "[8]": {"details": "cynomolgus monkey, in vivo, sc, 40 mg/kg", "remark": "listed apart in the source"}, "[9]": {"details": "cynomolgus monkey, in vivo, sc, 40 mg/kg", "remark": "listed apart in the source"}, "[10]": {"details": "cynomolgus monkey, in vivo, sc, 40 mg/kg", "remark": "listed apart in the source"}, "[11]": {"details": "cynomolgus monkey, in vivo, sc, 40 mg/kg", "remark": "listed apart in the source"}}, "note": "e = 2'-O-(2-methoxyethyl) (MOE); d = 2'-deoxy (DNA)", "data": [{"substance": "ISIS 141923: control oligonucleotide, 5-10-5 MOE gapmer with no known murine target, CCTTCCCTGAAGGTTCCTCC; SEQ ID NO: 2246 (sugars from the 5' end e5 d10 e5, backbone and methylation of C not given here) [reference compound]", "values": [{"measurement": "OD600 nm of Evans Blue dye, Colons", "setting": "[1]", "result": 0.44}, {"measurement": "OD600 nm of Evans Blue dye, Ears", "setting": "[1]", "result": 0.08}, {"measurement": "OD600 nm of Evans Blue dye, Feet", "setting": "[1]", "result": 0.14}, {"measurement": "OD600 nm of Evans Blue dye, Intestines", "setting": "[1]", "result": 0.29}, {"measurement": "Percent inhibition of PKK mRNA expression compared to the untreated PBS control", "setting": "[2]", "result": 0, "unit": "%"}, {"measurement": "Percent inhibition of C1-INH mRNA expression compared to the untreated PBS control", "setting": "[3]", "result": 79, "unit": "%"}, {"measurement": "Percent change in vascular permeability compared to the untreated PBS control, Colon", "setting": "[4]", "result": 2, "unit": "%"}, {"measurement": "Percent change in vascular permeability compared to the untreated PBS control, Feet", "setting": "[4]", "result": 80, "unit": "%"}, {"measurement": "Percent change in vascular permeability compared to the untreated PBS control, Intestines", "setting": "[4]", "result": 14, "unit": "%"}]}, {"substance": "ISIS 547445: gapmer targeting human PKK, selected from earlier screens; sequence in a table not shown (antisense GCCACTATAGATGCGCCAAA; gapmer, wing chemistry not given here)", "values": [{"measurement": "clinical observation, euthanasia", "setting": "[5]", "result": "two monkeys treated with ISIS 547445 were euthanized"}]}, {"substance": "ISIS 461756: 5-10-5 MOE gapmer which targets murine C1 inhibitor mRNA, AAAGTGGTTGATACCCTGGG; SEQ ID NO: 2245 (sugars from the 5' end e5 d10 e5, backbone and methylation of C not given here)", "values": [{"measurement": "Percent inhibition of PKK mRNA expression compared to the untreated PBS control", "setting": "[2]", "result": 0, "unit": "%"}, {"measurement": "Percent inhibition of C1-INH mRNA expression compared to the untreated PBS control", "setting": "[3]", "result": 76, "unit": "%"}, {"measurement": "C1-INH mRNA expression", "setting": "[3]; mouse liver, 12.5 mg/kg ISIS 461756 s.c. twice a week", "result": "significantly reduced C1-INH mRNA expression"}, {"measurement": "Percent change in vascular permeability compared to the untreated PBS control, Colon", "setting": "[4]", "result": 13, "unit": "%"}, {"measurement": "Percent change in vascular permeability compared to the untreated PBS control, Feet", "setting": "[4]", "result": 70, "unit": "%"}, {"measurement": "Percent change in vascular permeability compared to the untreated PBS control, Intestines", "setting": "[4]", "result": 27, "unit": "%"}]}, {"substance": "ISIS 546251: antisense oligonucleotide targeting nucleobases 27427-27466 of SEQ ID NO: 10; sequence in a table not shown (antisense GGCAAACATTCACTCCTTTA; 5-10-5 MOE gapmer, further chemistry not given here)", "values": [{"measurement": "PKK protein level reduction (%) in plasma relative to control levels", "setting": "[6]; Day 17", "result": 71, "unit": "%"}, {"measurement": "PKK protein level reduction (%) in plasma relative to control levels", "setting": "[6]; Day 31", "result": 75, "unit": "%"}, {"measurement": "PKK protein level reduction (%) in plasma relative to control levels", "setting": "[6]; Day 45", "result": 75, "unit": "%"}, {"measurement": "PKK protein level reduction (%) in plasma relative to control levels", "setting": "[6]; Day 59", "result": 81, "unit": "%"}, {"measurement": "PKK protein level reduction (%) in plasma relative to control levels", "setting": "[6]; Day 73", "result": 77, "unit": "%"}, {"measurement": "HCT", "setting": "[7]", "result": 43, "unit": "%"}, {"measurement": "Hemoglobin", "setting": "[7]", "result": 12.9, "unit": "g/dL"}, {"measurement": "Platelets", "setting": "[7]", "result": 419000, "unit": "µL⁻¹"}, {"measurement": "RBC", "setting": "[7]", "result": "5.7e+06", "unit": "µL⁻¹"}, {"measurement": "WBC", "setting": "[7]", "result": 8000, "unit": "µL⁻¹"}, {"measurement": "ALT", "setting": "[8]", "result": 58, "unit": "IU/L"}, {"measurement": "AST", "setting": "[8]", "result": 51, "unit": "IU/L"}, {"measurement": "Albumin", "setting": "[8]", "result": 3.7, "unit": "g/dL"}, {"measurement": "C3 (% of baseline)", "setting": "[9]", "result": "62 % of baseline"}, {"measurement": "CRP", "setting": "[9]", "result": 0.7, "unit": "mg/dL"}, {"measurement": "Plasma BUN", "setting": "[10]", "result": 25.4, "unit": "mg/dL"}, {"measurement": "Plasma Creatinine", "setting": "[10]", "result": 1.1, "unit": "mg/dL"}, {"measurement": "Urine protein/creatinine ratio", "setting": "[11]", "result": 0.12}]}]}
